Measurements reported in the NIST ThermoML archive (doi:10.1016/j.jct.2008.10.002).
± gives the expanded uncertainty stated by the source.

How the values were obtained:
[1] = molar heat capacity at constant pressure; xn = mol fraction of the nth substance listed; conditions: 101.3 kPa, Liquid, Small sample (50 mg) DSC
[2] = excess molar enthalpy (molar enthalpy of mixing); xn = mol fraction of the nth substance listed; conditions: 303.15 K, 101.3 kPa, Liquid
[3] = xn = mol fraction of the nth substance listed; conditions: 293.15 K, 101.3 kPa, Liquid, Vibrating tube method

CCCCn1cc[n+](C)c1.O=S(=O)([O-])C(F)(F)F [1-butyl-3-methylimidazolium trifluoromethanesulfonate] + O
molar heat capacity at constant pressure [J/K/mol], [1]
Conditions	x1 = 0.0496	x1 = 0.1415	x1 = 0.3369	x1 = 0.4868	x1 = 0.5637	x1 = 0.6636	x1 = 0.7124	x1 = 0.796	x1 = 0.9017
293.15 K	98.5 ± 1.5	131.9 ± 2	200.1 ± 3.1	250 ± 3.9	274.4 ± 4.3	307.4 ± 4.8	322.5 ± 5	350.7 ± 5.4	387.2 ± 6
298.15 K	98.7 ± 1.5	132.6 ± 2.1	201.3 ± 3.1	251.5 ± 3.9	276.1 ± 4.3	309.4 ± 4.8	324.4 ± 5	352.9 ± 5.5	389.4 ± 6
303.15 K	98.9 ± 1.5	133.3 ± 2.1	202.7 ± 3.1	253.2 ± 3.9	277.8 ± 4.3	311.5 ± 4.8	326.4 ± 5.1	355.2 ± 5.5	391.8 ± 6.1
308.15 K	99.1 ± 1.5	134 ± 2.1	204.1 ± 3.2	254.9 ± 3.9	279.7 ± 4.3	313.7 ± 4.9	328.5 ± 5.1	357.6 ± 5.5	394.4 ± 6.1
313.15 K	99.4 ± 1.5	134.8 ± 2.1	205.5 ± 3.2	256.7 ± 4	281.7 ± 4.4	316.1 ± 4.9	330.7 ± 5.1	360.2 ± 5.6	397 ± 6.2
318.15 K	99.7 ± 1.5	135.7 ± 2.1	207.1 ± 3.2	258.7 ± 4	283.7 ± 4.4	318.6 ± 4.9	333.1 ± 5.2	362.9 ± 5.6	399.9 ± 6.2

Conditions	excess molar enthalpy [kcal/mol]	mass density [kg/m3]
[2], x1 = 0.1007	0.157 ± 0.00359	–
[2], x1 = 0.1989	0.257 ± 0.0055	–
[2], x1 = 0.2954	0.312 ± 0.00669	–
[2], x1 = 0.3944	0.332 ± 0.00717	–
[2], x1 = 0.4985	0.317 ± 0.00693	–
[2], x1 = 0.5757	0.293 ± 0.00621	–
[2], x1 = 0.6624	0.245 ± 0.00526	–
[2], x1 = 0.8201	0.136 ± 0.00311	–
[3], x1 = 0.0496	–	1119.8 ± 0.4
[3], x1 = 0.1012	–	1176.7 ± 0.4
[3], x1 = 0.1415	–	1202.8 ± 0.4
[3], x1 = 0.197	–	1227.4 ± 0.4
[3], x1 = 0.2965	–	1252.5 ± 0.5
[3], x1 = 0.3369	–	1259.7 ± 0.5
[3], x1 = 0.3873	–	1266.8 ± 0.5
[3], x1 = 0.4868	–	1277.3 ± 0.5
[3], x1 = 0.5637	–	1283.2 ± 0.5
[3], x1 = 0.6636	–	1289.1 ± 0.5
[3], x1 = 0.7124	–	1291.6 ± 0.5
